Measurements: PMC6760264 (Journal of medicinal chemistry, 2019)

Biological target: T1, NTMT1 (Homo sapiens, UniProt Q9BV86)
T1 sequence (Q9BV86 1-223): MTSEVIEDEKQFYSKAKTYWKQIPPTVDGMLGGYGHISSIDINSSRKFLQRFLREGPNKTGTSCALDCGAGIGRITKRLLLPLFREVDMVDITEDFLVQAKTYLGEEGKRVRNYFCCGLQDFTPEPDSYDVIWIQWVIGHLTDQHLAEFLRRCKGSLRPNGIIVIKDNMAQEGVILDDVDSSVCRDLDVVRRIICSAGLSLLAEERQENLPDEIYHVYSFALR
Test: SAHH-coupled fluorescence assay of NTMT1 inhibition
Format: biochemical
Details: at 10 μM

inhibition against NTMT1: did not show any significant inhibition
SMILES: Nc1ncnc2c1ncn2[C@@H]1O[C@H](CN(CCCN2CCC[C@H]2C(=O)O)CC[C@H](N)C(=O)O)[C@@H](O)[C@H]1O [Compound 14, (3-(((S)-3-Amino-3-carboxypropyl)(((2R,3S,4R,5S)-5-(6-amino-9H-purin-9-yl)-3,4-dihydroxytetrahydrofuran-2-yl)-methyl)amino)propyl)-l-proline]
